Experimental data: patent publication US20050143463A1, “Method of inhibiting angiogenesis” (THE QUEEN ELIZABETH HOSPITAL RESEARCH FOUNDATION INC., priority 2002, published 2005)

Tested on: chicken chorioallantoic membrane (CAM)
Test: Chicken chorioallantoic membrane (CAM) assay for angiogenesis
Type: in vivo
Conditions: for Vein length (%) / Artery length (%) / Total vessel length (%) / Vein Diameter (%): % of control, Mean ± SEM
Procedure: Fertilised chicken eggs (HiChick Breeding Co, Kapunda, South Australia) were incubated for three days at 38° C. On Day 3 the embryos were cracked out of the egg and into a cup made of plastic piping, with plastic film stretched over the top to form a hammock for the egg to be suspended in. Two ml of DMEM containing penicillin and streptomycin was added to each cup prior to the egg being added. A petri dish on the top maintained sterility. Incubation continued in a humidified 37° C. incubator.
On Day 4 the chorioallantoic membrane (CAM) begins to grow, and pictures were taken of each embryo at ×5 to measure the CAM area using image analysis software (Video Pro 32, Leading Edge Pty Ltd, South Australia).
Embryos were then grouped according to their CAM area, with a control embryo in each for comparison. Grouping is critical as in these early developmental stages changes in the CAM growth are dramatic. Relatively small differences in size on Day 4 translate to large differences in the CAM on Day 5. Treatment was applied in methylcellulose discs, which were dried under vacuum overnight. The methylcellulose discs were applied to the top of the CAM, and at the beginning of treatment were at least three to four-fold bigger than the CAM area, meaning treatment covered the entire CAM surface.
On Day 5 skim milk with contrast medium was injected into the CAM. Pictures were then taken at various levels of magnification up to ×63. Quantitative measurements were made from ×5 pictures. CAM area, and vein and artery lengths were measured using image analysis (Video Pro 32, Leading Edge Pty Ltd, South Australia). Relative vessel lengths were then calculated as the total length/CAM area. Statistical analysis was made using SigmaStat and OneWay ANOVA with p<0.05 as the level of significance.

For CCC(C)CCCCCCCCCCC(=O)O (centres unmarked) [12-MTA, 12-methyltetradecanoic acid], the “Vein length (%)” value (25 nmol on methylcellulose disc) was 82.1 ± 22.9%, the “Artery length (%)” value (25 nmol) was 81.8 ± 11.6% and the “Total vessel length (%)” value (25 nmol) was 79.8 ± 15.0%. For the same molecule, the “Vein Diameter (%)” value (25 nmol) was 89.3 ± 25.2%, the “Vein length (%)” value (50 nmol on methylcellulose disc) was 74.4 ± 20.8% and the “Artery length (%)” value (50 nmol) was 78.8 ± 12.2%. The “Total vessel length (%)” value (50 nmol) was 74.9 ± 14.7%, the “Vein Diameter (%)” value (50 nmol) was 59.1 ± 11.2% and the “Vein length (%)” value (100 nmol on methylcellulose disc) was 46.0 ± 8.7^1%. The “Artery length (%)” value (100 nmol) was 63.8 ± 4.0^1%, the “Total vessel length (%)” value (100 nmol) was 54.9 ± 4.3^1% and the “Vein Diameter (%)” value (100 nmol) was 45.9 ± 10.0^1%. The “number of branching capillaries sprouting from the main vessels” value (500 nmol) was “reduction”, the vessel area (500 nmol) was “diminished” and the “cytotoxicity to the embryo” value (chicken embryo, CAM assay) was “not cytotoxic”. The “inhibition of angiogenesis in the CAM assay, dose dependent (in words)” value (dose dependent manner) was “inhibit angiogenesis” and the “effect of the lowest dose on vein length, artery length, total vessel length and vein diameter (in words)” value (lowest dose (25 nmol)) was “inhibited”.
